This assay deals with ER-alpha MCF7. Briefly: ER-alpha MCF7 HCS EC50; stated as measured by in vitro cell proliferation assays of Examples 902 and 903. Type of assay: cell-based. The following applies: Homo sapiens, MCF7, MCF7 cells; Table 2. Put shortly: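 MCF7 cells seeded 1000-2000 cells/well for 16 h, then treated with nine-point 1:2 DMSO dilution series in quadruplicate at 37 °C, 5% CO2 for 4 days. Viable cells quantified by CellTiter-Glo ATP luminescence; EC50 calculated. Controls: fulvestrant at final 100 nM, DMSO 0.2% v/v.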
On to `CC1(C)Cc2c([nH]c3ccccc23)[C@@H](c2c(F)cc(NC3CN(CCCF)C3)cc2F)N1CC(F)F` [Example 405, (R)-N-(4-(2-(2,2-difluoroethyl)-3,3-dimethyl-2,3,4,9-tetrahydro-1H-pyrido[3,4-b]indol-1-yl)-3,5-difluorophenyl)-1-(3-fluoropropyl)azetidin-3-amine], for which the EC50 worked out at 0.23 nM.
To `C[C@@H]1Cc2c([nH]c3ccccc23)[C@@H](c2c(F)cc(OCCN3CC(CF)C3)cc2F)N1C[C@H](C)C(=O)O` [Example 299, (S)-3-((1R,3R)-1-(2,6-difluoro-4-(2-(3-(fluoromethyl)azetidin-1-yl)ethoxy)phenyl)-3-methyl-1,3,4,9-tetrahydro-2H-pyrido[3,4-b]indol-2-yl)-2-methylpropanoic acid] belongs 3 nM.
On to `CC1(C)Cc2c([nH]c3ccccc23)[C@H](c2c(F)cc(NC3CN(CCCF)C3)cc2F)N1CC(F)F` [Example 406, (S)-N-(4-(2-(2,2-difluoroethyl)-3,3-dimethyl-2,3,4,9-tetrahydro-1H-pyrido[3,4-b]indol-1-yl)-3,5-difluorophenyl)-1-(3-fluoropropyl)azetidin-3-amine], for which the EC50 came to 1.8 nM.
The result for `C[C@@H]1Cc2c([nH]c3ccccc23)[C@@H](c2ccc([C@H](O)C3CN(CCCF)C3)cc2)N1CC(C)(C)F` [Example 381, (R)-(4-((1R,3R)-2-(2-fluoro-2-methylpropyl)-3-methyl-2,3,4,9-tetrahydro-1H-pyrido [3,4-b]indol-1-yl)phenyl)(1-(3-fluoropropyl)azetidin-3-yl)methanol] reads 0.605 nM; that for `C[C@@H]1Cc2c([nH]c3c(F)cccc23)[C@@H](c2c(F)cc(NC3CN(CCCF)C3)cc2F)N1CC(F)(F)CO` [Example 423, 3-((1R,3R)-1-(2,6-difluoro-4-((1-(3-fluoropropyl)azetidin-3-yl)amino)phenyl)-8-fluoro-3-methyl-3,4-dihydro-1H-pyrido[3,4-b]indol-2(9H)-yl)-2,2-difluoropropan-1-ol], 0.089 nM.
Consider `C[C@@H]1Cc2c([nH]c3ccccc23)[C@@H](c2c(F)cc(OCCN3CC(CF)C3)cc2F)N1C[C@@H](F)CO` [Example 395, (R)-3-((1R,3R)-1-(2,6-difluoro-4-(2-(3-(fluoromethyl)azetidin-1-yl)ethoxy)phenyl)-3-methyl-3,4-dihydro-1H-pyrido[3,4-b]indol-2(9H)-yl)-2-fluoropropan-1-ol], for which the EC50 was determined as 0.053 nM.
For `COC(CCN1CC(Oc2cc(F)c([C@@H]3c4[nH]c5ccccc5c4C[C@@H](C)N3CC(C)(C)F)c(F)c2)C1)OC` [Example 176, (1R,3R)-1-[4-[1-(3,3-dimethoxypropyl)azetidin-3-yl]oxy-2,6-difluoro-phenyl]-2-(2-fluoro-2-methyl-propyl)-3-methyl-1,3,4,9-tetrahydropyrido[3,4-b]indole], the EC50 was 0.031 nM.
With `C[C@@H]1Cc2c([nH]c3cc(F)c(F)cc23)[C@@H](c2c(F)cc(OC3CN(CCCF)C3)cc2F)N1CC(C)(C)F` [Example 428, (1R,3R)-1-(2,6-difluoro-4-(1-(3-fluoropropyl)azetidin-3-yloxy)phenyl)-6,7-difluoro-2-(2-fluoro-2-methylpropyl)-3-methyl-2,3,4,9-tetrahydro-1H-pyrido[3,4-b]indole], the EC50 turned out to be 0.7 nM.
As to `C#CCN1CC(Oc2cc(F)c([C@@H]3c4[nH]c5ccccc5c4C[C@@H](C)N3CC(C)(C)F)c(F)c2)C1` [Example 167, (1R,3R)-1-[2,6-difluoro-4-(1-prop-2-ynylazetidin-3-yl)oxy-phenyl]-2-(2-fluoro-2-methyl-propyl)-3-methyl-1,3,4,9-tetrahydropyrido[3,4-b]indole], the EC50 turned out to be 0.083 nM.
Take `CC(C)[S@@+]([O-])N1[C@H](c2ccc(OCCN3CC(CF)C3)cc2)c2[nH]c3ccccc3c2C[C@H]1C` [Example 333, (1R,3R)-1-(4-(2-(3-(fluoromethyl)azetidin-1-yl)ethoxy)phenyl)-2-((R)-isopropylsulfinyl)-3-methyl-2,3,4,9-tetrahydro-1H-pyrido[3,4-b]indole]: the EC50 is 48 nM.
As to `C[C@H]1Cc2c([nH]c3ccc(F)cc23)[C@H](c2c(F)cc(NC3CN(CCCF)C3)cc2F)N1S(C)(=O)=O` [Example 388, N-(3,5-difluoro-4-((1S,3S)-6-fluoro-3-methyl-2-(methylsulfonyl)-2,3,4,9-tetrahydro-1H-pyrido[3,4-b]indol-1-yl)phenyl)-1-(3-fluoropropyl)azetidin-3-amine], the EC50 stood at 19 nM.
The result for `C[C@@H]1Cc2c([nH]c3ccccc23)[C@@H](c2c(F)cc(OCCN3CC(CF)C3)cc2F)N1C(=O)c1ccccc1` [Example 185, [(1R,3R)-1-[2,6-difluoro-4-[2-[3-(fluoromethyl)azetidin-1-yl]ethoxy]phenyl]-3-methyl-1,3,4,9-tetrahydropyrido[3,4-b]indol-2-yl]-phenyl-methanone] reads 14 nM; that for `C[C@H]1Cc2c([nH]c3ccc(F)cc23)[C@H](c2c(F)cc(NC3CN(CCCF)C3)cc2F)N1C[C@](C)(F)CO` [Example 432, (S)-3-((1S,3S)-1-(2,6-difluoro-4-((1-(3-fluoropropyl)azetidin-3-yl)amino)phenyl)-6-fluoro-3-methyl-1,3,4,9-tetrahydro-2H-pyrido[3,4-b]indol-2-yl)-2-fluoro-2-methylpropan-1-ol], 3.27 nM; that for `C[C@@H]1Cc2c([nH]c3ccccc23)[C@@H](c2c(F)cc(NC3CN(CCCF)C3)cc2F)N1C[C@](C)(F)CO` [Example 289, (S)-3-((1R,3R)-1-(2,6-difluoro-4-((1-(3-fluoropropyl)azetidin-3-yl)amino)phenyl)-3-methyl-1,3,4,9-tetrahydro-2H-pyrido[3,4-b]indol-2-yl)-2-fluoro-2-methylpropan-1-ol], 0.199 nM.
To `CC(C)N1CC(Oc2cc(F)c([C@@H]3c4[nH]c5ccccc5c4C[C@@H](C)N3CC(C)(C)F)c(F)c2)C1` [Example 168, (1R,3R)-1-[2,6-difluoro-4-(1-isopropylazetidin-3-yl)oxy-phenyl]-2-(2-fluoro-2-methyl-propyl)-3-methyl-1,3,4,9-tetrahydropyrido[3,4-b]indole] belongs 0.122 nM.
For `C[C@@H]1Cc2c([nH]c3ccccc23)[C@@H](c2ccc(OCCN3CC(CF)C3)cc2)N1C(=O)C(C)(C)F` [Example 221, 2-fluoro-1-[(1R,3R)-1-[4-[2-[3-(fluoromethyl)azetidin-1-yl]ethoxy]phenyl]-3-methyl-1,3,4,9-tetrahydropyrido[3,4-b]indol-2-yl]-2-methyl-propan-1-one], the EC50 amounted to 180 nM.
To `C[C@@H]1Cc2c([nH]c3cccc(F)c23)[C@@H](c2c(F)cc(OC3CN(CCCF)C3)cc2F)N1CC(C)(C)F` [Example 249, (1R,3R)-1-(2,6-difluoro-4-((1-(3-fluoropropyl)azetidin-3-yl)oxy)phenyl)-5-fluoro-2-(2-fluoro-2-methylpropyl)-3-methyl-2,3,4,9-tetrahydro-1H-pyrido[3,4-b]indole] belongs 0.511 nM.
The result for `CC(=O)CN1[C@H](c2c(F)cc(OC3CN(CCCF)C3)cc2F)c2[nH]c3ccccc3c2C[C@H]1C` [Example 283, 1-[(1R,3R)-1-[2,6-difluoro-4-[1-(3-fluoropropyl)azetidin-3-yl]oxy-phenyl]-3-methyl-1,3,4,9-tetrahydropyrido[3,4-b]indol-2-yl]propan-2-one] reads 1 nM; that for `C[C@@H]1Cc2c([nH]c3ccccc23)[C@@H](c2c(F)cc(OC3CN(CCCF)C3)cc2F)N1CC(F)(F)F` [Example 277, (1R,3R)-1-[2,6-difluoro-4-[1-(3-fluoropropyl)azetidin-3-yl]oxy-phenyl]-3-methyl-2-(2,2,2-trifluoroethyl)-1,3,4,9-tetrahydropyrido[3,4-b]indole], 0.09 nM; that for `C[C@@H]1Cc2c([nH]c3ccccc23)[C@@H](c2c(F)cc(OC3CN(CC4CCC(F)(F)CC4)C3)cc2F)N1CC(C)(C)F` [Example 217, (1R,3R)-1-[4-[1-[(4,4-difluorocyclohexyl)methyl]azetidin-3-yl]oxy-2,6-difluoro-phenyl]-2-(2-fluoro-2-methyl-propyl)-3-methyl-1,3,4,9-tetrahydropyrido[3,4-b]indole], 2 nM.
On to `C[C@@H]1Cc2c([nH]c3ccccc23)[C@@H](c2c(F)cc(OC3CN(C4CC4)C3)cc2F)N1CC(C)(C)F` [Example 195, (1R,3R)-1-[4-(1-cyclopropylazetidin-3-yl)oxy-2,6-difluoro-phenyl]-2-(2-fluoro-2-methyl-propyl)-3-methyl-1,3,4,9-tetrahydropyrido[3,4-b]indole], for which the EC50 turned out to be 0.165 nM.
To `C[C@@H]1Cc2c([nH]c3ccccc23)[C@@H](c2c(F)cc(OC3CN(CCCF)C3)cc2F)N1CC1(C)COC1` [Example 246, (1R,3R)-1-[2,6-difluoro-4-[1-(3-fluoropropyl)azetidin-3-yl]oxy-phenyl]-3-methyl-2-[(3-methyloxetan-3-yl)methyl]-1,3,4,9-tetrahydropyrido[3,4-b]indole] belongs 0.358 nM; to `C[C@@H]1Cc2c([nH]c3ccccc23)[C@@H](c2c(F)cc(OC3CN(CCCF)C3)cc2F)N1C[C@@](C)(F)CO` [Example 234, 3-((1R,3R)-1-(2,6-difluoro-4-((1-(3-fluoropropyl)azetidin-3-yl)oxy)phenyl)-3-methyl-1,3,4,9-tetrahydro-2H-pyrido[3,4-b]indol-2-yl)-2-fluoro-2-methylpropan-1-ol], 0.18 nM.
In the case of `C[C@@H]1Cc2c([nH]c3ccc(F)cc23)[C@@H](c2c(F)cc(NC3CN(CCCF)C3)cc2F)N1C[C@](C)(F)CO` [Example 433, (S)-3-((1R,3R)-1-(2,6-difluoro-4-((1-(3-fluoropropyl)azetidin-3-yl)amino)phenyl)-6-fluoro-3-methyl-1,3,4,9-tetrahydro-2H-pyrido[3,4-b]indol-2-yl)-2-fluoro-2-methylpropan-1-ol], the EC50 turned out to be 0.0209 nM.
As to `C[C@@H]1Cc2c([nH]c3ccccc23)[C@@H](c2ccc(NCCN3CC(CF)C3)cc2F)N1CC(C)(C)F` [Example 322, 3-fluoro-N-[2-[3-(fluoromethyl)azetidin-1-yl]ethyl]-4-[(1R,3R)-2-(2-fluoro-2-methyl-propyl)-3-methyl-1,3,4,9-tetrahydropyrido[3,4-b]indol-1-yl]aniline], the EC50 was found to be 0.0253 nM.

The EC50 is the concentration needed to bring the measured effect to its halfway point.
